Target: T1, hNPRA (Homo sapiens, UniProt P16066)
T1 construct: expressed in transfected cells
T1 sequence (P16066 33-1061): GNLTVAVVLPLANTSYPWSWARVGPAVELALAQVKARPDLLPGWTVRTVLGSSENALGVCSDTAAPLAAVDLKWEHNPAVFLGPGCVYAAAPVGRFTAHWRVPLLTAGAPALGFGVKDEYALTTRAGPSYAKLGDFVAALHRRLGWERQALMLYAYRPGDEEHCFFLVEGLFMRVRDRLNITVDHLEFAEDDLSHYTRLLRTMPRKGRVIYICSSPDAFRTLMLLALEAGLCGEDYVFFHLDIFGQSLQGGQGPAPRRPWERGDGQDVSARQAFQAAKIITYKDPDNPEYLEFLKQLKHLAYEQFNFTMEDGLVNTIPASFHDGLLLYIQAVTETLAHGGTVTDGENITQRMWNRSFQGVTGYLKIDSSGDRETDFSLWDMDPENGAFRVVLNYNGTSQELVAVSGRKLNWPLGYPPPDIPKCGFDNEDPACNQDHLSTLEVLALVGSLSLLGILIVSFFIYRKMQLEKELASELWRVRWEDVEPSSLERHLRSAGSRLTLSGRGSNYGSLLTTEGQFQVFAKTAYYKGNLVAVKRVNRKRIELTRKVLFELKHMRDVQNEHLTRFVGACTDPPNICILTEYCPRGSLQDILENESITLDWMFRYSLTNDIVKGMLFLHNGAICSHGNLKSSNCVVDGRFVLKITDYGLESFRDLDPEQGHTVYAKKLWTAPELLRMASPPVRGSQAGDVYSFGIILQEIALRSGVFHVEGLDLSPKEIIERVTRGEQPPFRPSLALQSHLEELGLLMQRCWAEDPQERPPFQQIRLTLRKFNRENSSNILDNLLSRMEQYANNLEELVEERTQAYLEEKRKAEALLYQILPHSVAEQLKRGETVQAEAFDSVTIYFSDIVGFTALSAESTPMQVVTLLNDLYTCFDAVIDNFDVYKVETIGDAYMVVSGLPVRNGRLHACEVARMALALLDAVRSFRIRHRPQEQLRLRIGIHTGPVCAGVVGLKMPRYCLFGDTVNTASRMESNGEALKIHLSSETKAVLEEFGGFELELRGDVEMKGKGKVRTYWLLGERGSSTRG
Experiment: NPRA Functional Cell Assay (cGMP HTRF, NPRA HEK JumpIn stable cells)
Assay type: cell-based
Conditions: cGMP production, 1 hour at 37° C., 10-point dose response
How it was run: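 cGMP HTRF read-out after 1 hour compound treatment at 37° C. of human NPRA-expressing HEK JumpIn cells, 1500 cells/well, in buffer with phosphodiesterase inhibitors IBMX and RO20 (100 uM each). Signal converted to [cGMP] by calibration curve; EC50s fitted by 4-parameter logistic; 50 nM h-ANP as positive response.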

Row | EC50 | Structure (SMILES)
1 | 1040 nM | CC(C)(C)[C@H]1CCc2nc3sc(C(=O)N[C@H](CCN4C[C@@H](O)[C@@H](O)C4)c4ccc(-c5ccc(=O)[nH]c5)cc4)cc3cc2C1 (racemic) [Example 61, rac-(6S)-6-tert-butyl-N-[rac-(1R)-1-[4-(6-oxo-1H-pyridin-3-yl)phenyl]-3-[rac-(3S,4R)-3,4-dihydroxypyrrolidin-1-ium-1-yl]propyl]-5,6,7,8-tetrahydrothieno[2,3-b]quinoline-2-carboxamide;formate]
2 | 527 nM | CN(C)CC[C@@H](NC(=O)c1nc2cc3c(nc2s1)CC[C@H](C(C)(C)C)C3)c1cccc(C(=O)N2CC(C)(O)C2)c1 (racemic) [Example 93, rac-(7S)-7-tert-butyl-N-[rac-(1R)-3-(dimethylamino)-1-[3-(3-hydroxy-3-methyl-azetidine-1-carbonyl)phenyl]propyl]-5,6,7,8-tetrahydrothiazolo[5,4-b] quinoline-2-carboxamide]
3 | 681 nM | CC(C)(C)[C@H]1CCc2nc3sc(C(=O)N[C@H](CCN4CCC(O)CC4)c4ccc(-n5ccnc5)cc4)nc3cc2C1 (racemic) [Example 83, rac-(7S)-7-tert-butyl-N-[rac-(1R)-3-(4-hydroxy-piperidin-1-ium-1-yl)-1-(4-imidazol-1-ylphenyl)propyl]-5,6,7,8-tetrahydro-thiazolo[5,4-b] quinoline-2-carboxamide; 2,2,2-trifluoroacetate]
4 | 1660 nM | Cc1nc(O)ccc1-c1ccc([C@@H](CCN2CCCCC2)NC(=O)c2cc3cc4c(nc3s2)CC[C@H](C(C)(C)C)C4)cc1 [Example 240, (6S)-6-tert-butyl-N-{(1R)-1-[4-(6-hydroxy-2-methylpyridin-3-yl)phenyl]-3-piperidin-1-ylpropyl}-5,6,7,8-tetrahydrothieno[2,3-b]quinoline-2-carboxamide]
5 | 655 nM | CC(C)(C)[C@H]1CCc2nc3sc(C(=O)N[C@H](CCN[C@H]4C[C@@H](O)[C@@H](O)C4)c4ccc(-c5ccc(=O)[nH]c5)cc4)cc3cc2C1 (racemic) [Example 39, [rac-(3R,4S)-3,4-dihydroxycyclopentyl]-[rac-(3R)-3-[4-(6-oxo-1H-pyridin-3-yl)phenyl]-3-[[rac-(6S)-6-tert-butyl-5,6,7,8-tetrahydrothieno[2,3-b]quinoline-2-carbonyl]amino]propyl] ammonium;formate]
6 | 758 nM | CC(C)(C)[C@H]1CCc2nc3sc(C(=O)N[C@H](CCNC4CCNC(=O)C4)c4ccc(-c5ccc(=O)[nH]c5)cc4)cc3cc2C1 (mixture of isomers) [Example 54, (2-oxo-4-piperidyl)-[rac-(3R)-3-[4-(6-oxo-1H-pyridin-3-yl)phenyl]-3-[rac-(6S)-6-tert-butyl-5,6,7,8-tetrahydrothieno[2,3-b]quinoline-2-carbonyl]amino]propyl] ammonium;formate]
7 | 374 nM | CC(C)(C)[C@H]1CCc2nc3sc(C(=O)N[C@H](CCN4CCC(O)CC4)c4ccc(-c5csc(C(=O)O)c5)cc4)nc3cc2C1 (racemic) [Example 126, 4-[4-[rac-(1R)-3-(4-hydroxy-1-piperidyl)-1-[[rac-(7S)-7-tert-butyl-5,6,7,8-tetrahydrothiazolo[5,4-b]quinoline-2-carbonyl]amino]propyl]phenylthiophene-2-carboxylic acid]
8 | 2000 nM | CC1(NC(=O)c2cccc([C@@H](CCN3CCC(C(=O)O)CC3)NC(=O)c3nc4cc5c(nc4s3)CC[C@H](C(C)(C)C)C5)c2)CNC1 (racemic) [Example 125, 1-[rac-(3R)-3-[3-[(3-methylazetidin-1-ium-3-yl)carbamoyl]phenyl]-3-[[rac-(7S)-7-tert-butyl-5,6,7,8-tetrahydrothiazolo [5,4-b]quinoline-2-carbonyl]amino]propyl] piperidine-4-carboxylic acid; 2,2,2-trifluoroacetate]
9 | 2000 nM | CN(C)CC[C@@H](NC(=O)c1nc2cc3c(nc2s1)CC[C@H](C(C)(C)C)C3)c1cccc(C(=O)NC2CCN(CC(F)(F)F)C2)c1 (mixture of isomers) [Example 100, rac-(7S)-7-tert-butyl-N-[rac-(1R)-3-(dimethyl-amino)-1-[3-[[1-(2,2,2-trifluoroethyl)pyrrolidin-3-yl]carbamoyl]phenyl]propyl]-5,6,7,8-tetrahydrothiazolo[5,4-b] quinoline-2-carboxamide]
10 | 611 nM | CC(C)(C)[C@H]1CCc2nc3sc(C(=O)N[C@H](CCN4CCC(O)CC4)c4ccc(-c5ccc(O)nn5)cc4)nc3cc2C1 (racemic) [Example 165, rac-(7S)-7-tert-butyl-N-[rac-(1R)-3-(4-hydroxypiperidin-1-ium-1-yl)-1-[4-(6-hydroxypyridazin-3-yl)phenyl]propyl]-5,6,7,8-tetrahydrothiazolo[5,4-b]quinoline-2-carboxamide; 2,2,2-trifluoroacetate]
11 | 1030 nM | CC(C)(C)[C@H]1CCc2nc3sc(C(=O)N[C@H](CCN4CCC(O)CC4)c4ccc(-c5cnoc5)cc4)nc3cc2C1 (racemic) [Example 176, rac-(7S)-7-tert-butyl-N-[rac-(1R)-3-(4-hydroxypiperidin-1-ium-1-yl)-1-(4-isoxazol-4-ylphenyl)propyl]-5,6,7,8-tetrahydrothiazolo[5,4-b]quinoline-2-carboxamide; 2,2,2-trifluoroacetate]
12 | 641 nM | Cc1nn(-c2ccc([C@@H](CCN3CCC(O)CC3)NC(=O)c3nc4cc5c(nc4s3)CC[C@H](C(C)(C)C)C5)cn2)c(C)c1O (racemic) [Example 187, ammonium; 3,5-dimethyl-1-[5-[rac-(1R)-3-(4-hydroxy-1-piperidyl)-1-[[rac-(7S)-7-tert-butyl-5,6,7,8-tetrahydrothiazolo[5,4-b]quinoline-2-carbonyl]amino]propyl]-2-pyridyl]pyrazol-4-olate]
13 | 986 nM | CC(C)CN(C)CC[C@@H](NC(=O)c1nc2cc3c(nc2s1)CC[C@H](C(C)(C)C)C3)c1ccc(NS(=O)(=O)N(C)C)nc1 (racemic) [Example 212, isobutyl-methyl-[rac-(3R)-3-[6-(dimethylsulfamoylamino)-3-pyridyl]-3-[rac-(7S)-7-tert-butyl-5,6,7,8-tetrahydrothiazolo[5,4-b]quinoline-2-carbonyl]amino]propyl]ammonium; 2,2,2-trifluoroacetate]
14 | 987 nM | CC(C)(C)[C@H]1CCc2nc3sc(C(=O)N[C@H](CCN4CCOCC4)c4ccc(C(=O)N[C@H]5CNC[C@@H]5O)cc4)cc3cc2C1 (racemic) [Example 72]
15 | 764 nM | COCCN(C)CC[C@@H](NC(=O)c1nc2cc3c(nc2s1)CC[C@H](C(C)(C)C)C3)c1ccc(NS(=O)(=O)N(C)C)nc1 (racemic) [Example 210, 2-methoxyethyl-methyl-[rac-(3R)-3-[6-(dimethylsulfamoylamino)-3-pyridyl]-3-[rac-(7S)-7-tert-butyl-5,6,7,8-tetrahydrothiazolo[5,4-b]quinoline-2-carbonyl]amino]propyl]ammonium; 2,2,2-trifluoroacetate]
16 | 386 nM | CC(C)(C)[C@H]1CCc2nc3sc(C(=O)N[C@H](CCN[C@H]4C[C@@H](CO)[C@H](O)[C@@H]4O)c4ccc(-c5ccc(=O)[nH]c5)cc4)cc3cc2C1 (racemic) [Example 26, [rac-(1S,2R,3S,4S)-2,3-dihydroxy-4-(hydroxymethyl)cyclopentyl]-[rac-(3R)-3-[4-(6-oxo-1H-pyridin-3-yl)phenyl]-3-[rac-(6S)-6-tert-butyl-5,6,7,8-tetrahydrothieno[2,3-b]quinoline-2-carbonyl]amino]propyl] ammonium;formate]

From patent US12440496B2, “Natriuretic peptide receptor a agonists useful for the treatment of cardiometabolic diseases, kidney disease and diabetes” (Merck Sharp & Dohme LLC, priority 2019, dated 2025)
